From patent US9051387B2, “Inhibition of MyBP-C binding to myosin as a treatment for heart failure” (Wisconsin Alumni Research Foundation, priority 2012, dated 2015)
“Also recorded” adds a separate entry of the source.

Key:
[1] = test system: mouse skinned myocardium; test: Force-pCa relationship (Ca2+ sensitivity of force) in skinned myocardium; format: cell-based
Description: (§1) Skinned ventricular myocardium was prepared according to the protocol described by Chen et al. (2010). In brief, beating hearts were excised in vivo from anesthetized WT mice of either sex (˜6 months old) and dissected in Ca^2+-Ringer's solution containing 120 mM NaCl, 19 mM NaHCO3, 5 mM KCl, 1.2 mM Na2HPO4, 1.2 mM MgSO4, 1 mM CaCl2, and 10 mM glucose, pH 7.4 at 22° C., pre-equilibrated with 95% O2/5% CO2. Basal levels of RLC phosphorylation were reduced to uniformly low levels (i.e., <10%) as described previously (Olsson et al., 2004; Stelzer et al., 2006) by perfusing hemisected hearts with Ca^2+-Ringer's solution containing 30 mM 2,3-butanedione monoxime (BDM) for 30 minutes at 22° C. before rapid freezing in liquid nitrogen for storage prior to experimental measurements. The dephosphorylation of RLC provides an appropriate background for assessment of the effects of the peptide, since RLC phosphorylation increases force production in heart muscle and speeds contraction and RLC phosphorylation is nearly nil in heart failure.
On the day of an experiment, frozen ventricles were thawed and homogenized in ice-cold relaxing solution containing 100 mM KCl, 10 mM imidazole, 5 mM MgCl2, 2 mM EGTA, and 4 mMATP, pH 7.0 at 22° C. to yield multicellular preparations with dimensions of 600-900 μm×100-250 μm using a Polytron homogenizer. The cellular homogenates were then centrifuged and subsequently resuspended in ice-cold relaxing solution containing 250 μg/ml saponin and 1% Triton X-100 for 30 minutes at 4° C. […]
(§2) The force generating properties of murine or porcine skinned myocardium were measured as a function of free [Ca^2+] in activating solutions containing salts, a Ca^2+ buffer, and MgATP (Olsson et al., 2004). Free Ca^2+, expressed as −log [Ca^2+]free, was varied between sub-threshold (pCa 7.0) and saturating (pCa 4.5) levels with respect to force development. Measurements of isometric force as a function of pCa yielded force-pCa relationships, from which was determined the Ca^2+ sensitivity of force defined as the pCa at which force was half-maximal. […]

[2] = test system: porcine skinned myocardium; test: as above; format: cell-based, pig
Description: Skinned myocardial preparations were attached between a force transducer (for measurements of force) and a displacement motor (to impose rapid changes in length for measurements of the kinetics of force development) while in relaxing solution (Olsson et al., 2004). The temperature was then adjusted to 22° C. for measurements of the contractile properties of myocardium in the presence and absence of peptide.
The force generating properties of murine or porcine skinned myocardium were measured as a function of free [Ca^2+] in activating solutions containing salts, a Ca^2+ buffer, and MgATP (Olsson et al., 2004). Free Ca^2+, expressed as −log [Ca^2+]free, was varied between sub-threshold (pCa 7.0) and saturating (pCa 4.5) levels with respect to force development. Measurements of isometric force as a function of pCa yielded force-pCa relationships, from which was determined the Ca^2+ sensitivity of force defined as the pCa at which force was half-maximal.
The force and kinetic data presented in the following section were obtained from each muscle preparation first during maximal activation at pCa 4.5, next during submaximal activation at a pCa>4.5, and once again during activation at pCa 4.5. The preparation was then bathed in relaxing solution containing peptide, after which the identical activation sequence was imposed. Finally, the peptide was washed out of the preparation by repeated washings in relaxing solution so that control measurements could again be done in the absence of peptide. This bracketing protocol ensured that the results in the presence of peptide were corrected for time-dependent rundown of the preparations during the experiment.
Measurements of Ca^2+ sensitivity of force were also performed using skinned myocardium from pig hearts, since these hearts are more similar to human hearts with respect to protein isoform expression than are mouse hearts. Specifically, the principal myosin isoform in porcine and human hearts is the much slower β-cardiac myosin, while the principal isoform in mouse hearts is the faster α-cardiac myosin. […] The slower β-cardiac isoform would be predicted to have a greater activating effect on the cardiac thin filament due to the longer residency time of the slower myosin on the thin filament.

[3] = test system: murine skinned myocardium; test: Kinetics of force development (rate constant of force redevelopment, ktr); format: cell-based, mouse; conditions: 50 μM peptide, each pCa studied
Description: as §1, with “failure. […]” for “failure.”
The kinetics of force development were assessed as a function of pCa by measuring the rate of force redevelopment at each pCa following a rapid slackening and re-stretch of the muscle during steady Ca^2+ activation (Olsson et al., 2004; Stelzer et al., 2006). […]

[4] = test system: mouse skinned myocardium; test: Relative effects of peptides on force at submaximal pCa (scaled to force at pCa 4.5); format: cell-based; conditions: FIG. 7, mouse, 50 μM, intermediate pCa; untreated force ~35% of maximum
Description: as §1, with “The dephosphorylation of RLC provides an appropriate background for assessment of the effects of the peptide, since RLC phosphorylation increases force production in heart muscle and speeds contraction and RLC phosphorylation is nearly nil in heart failure.” left out
as §2

FSSLLKKRDAFRRDAKLE (SEQ ID NO:47) [302A, 18-mer from cMyBP-C region 293-310 with S→A substitutions at positions 302 and 307]
increase in Ca2+ sensitivity of force ([1]; mouse myocardium, 50 μM peptide, versus control): 0.15 pCa units | pCa50 following treatment with peptide ([1]; mouse myocardium, 50 μM peptide, control 5.70±0.02): 5.85±0.02 | effect on force-pCa relationship ([1]; mouse skinned myocardium, peptide 50 μM): shift of the force-pCa relationship to lower Ca^2+ concentrations; also recorded: shifted to lower Ca^2+ concentrations | increase in Ca2+ sensitivity of force ([2]; porcine myocardium, 50 μM peptide, versus control): 0.32 pCa units | pCa50 following treatment with peptide ([2]; porcine myocardium, 50 μM peptide, control 5.60): 5.92 | effect of washout of the peptide ([2]; porcine myocardium, after 50 μM peptide): reversed the effect | effects on force development, porcine versus murine ([2]; skinned myocardium, FIG. 3): significantly greater in porcine than in murine skinned myocardium | effect on rate constant of force development (ktr) [3]: accelerated the rate of force development at each pCa studied; also recorded: increased at each pCa studied | force at pCa 5.9 (scaled to force at pCa 4.5), fold of control [4]: ~2 × control
